In ChEMBL document CHEMBL4673381, “Novel Hexahydro-1H-Pyrazino[1,2-a]pyrazine Compounds for Treating Autoimmune Diseases” (ACS Med Chem Lett, 2021):

Target: T1, Toll-like receptor 9 (Homo sapiens, UniProt Q9NR96)
T1 sequence (Q9NR96 whole entry): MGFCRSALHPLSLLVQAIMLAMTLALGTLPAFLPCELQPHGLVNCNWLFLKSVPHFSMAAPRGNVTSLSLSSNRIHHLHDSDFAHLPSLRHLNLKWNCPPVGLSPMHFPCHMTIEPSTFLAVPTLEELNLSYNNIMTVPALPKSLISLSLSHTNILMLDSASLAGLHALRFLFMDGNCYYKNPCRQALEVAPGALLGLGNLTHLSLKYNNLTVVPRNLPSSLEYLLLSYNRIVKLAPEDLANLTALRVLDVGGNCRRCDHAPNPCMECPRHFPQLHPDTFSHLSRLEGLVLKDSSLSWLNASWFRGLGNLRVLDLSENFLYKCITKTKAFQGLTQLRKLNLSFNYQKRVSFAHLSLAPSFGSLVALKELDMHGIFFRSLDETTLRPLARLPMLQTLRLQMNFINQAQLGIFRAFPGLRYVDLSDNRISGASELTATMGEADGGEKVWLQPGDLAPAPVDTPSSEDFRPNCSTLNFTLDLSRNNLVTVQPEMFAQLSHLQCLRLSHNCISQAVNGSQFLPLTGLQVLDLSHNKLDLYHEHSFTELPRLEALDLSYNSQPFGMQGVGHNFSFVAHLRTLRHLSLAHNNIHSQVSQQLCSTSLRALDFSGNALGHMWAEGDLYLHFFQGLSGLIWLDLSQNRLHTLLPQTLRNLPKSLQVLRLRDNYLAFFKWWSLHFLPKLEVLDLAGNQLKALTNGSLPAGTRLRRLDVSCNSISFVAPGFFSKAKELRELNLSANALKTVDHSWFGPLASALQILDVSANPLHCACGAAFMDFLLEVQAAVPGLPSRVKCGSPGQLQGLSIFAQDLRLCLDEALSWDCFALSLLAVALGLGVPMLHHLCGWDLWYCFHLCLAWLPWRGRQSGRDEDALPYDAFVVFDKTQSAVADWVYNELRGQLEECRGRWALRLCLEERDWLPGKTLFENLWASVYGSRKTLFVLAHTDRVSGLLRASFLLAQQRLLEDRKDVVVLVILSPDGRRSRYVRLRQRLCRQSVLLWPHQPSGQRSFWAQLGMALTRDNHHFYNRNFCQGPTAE
Experiment: Inhibition of human TLR9 expressed in HEK-Blue cells assessed as inhibition of ODN2006-induced NF-kappaB and AP-1 activation measured after 20 hrs by quanti-blue based SEAP reporter gene assay
Format: cell-based, HEK-Blue hTLR9

IC50 | SMILES
54 nM | C[C@@H]1CN(c2ccc(C#N)c3ncccc23)C[C@@H]2CN(c3cccc4c3CCNC4)CCN21
70 nM | [2H]c1ccc2c(N3CC4CN(c5ncc(N6CCOC[C@H](N)C6)cc5C)CCN4[C@@H](C)C3)ccc(C#N)c2n1 (some centres not stated)
